Data as given in ChEMBL document CHEMBL4610057, “Benzopyrimidodiazepinone inhibitors of TNK2” (Bioorg Med Chem Lett, 2020).

What was measured:
in vivo [1] = settings: CD1, mouse, iv, 3 mg/kg
[2] = mouse, microsomes
in vitro [3] = settings: mouse, hepatocytes
in vivo [4] = settings: CD1, mouse, po, 10 mg/kg
[5] = Metabolic stability in mouse liver microsomes assessed as parent compound remaining measured after 60 mins; format: ADME, Microsome
in vivo [6] = settings: CD1, mouse, iv, 3 mg/kg; remark: listed apart in the source
in vivo [7] = settings: CD1, mouse, po, 10 mg/kg; remark: listed apart in the source
in vitro [8] = settings: mouse, liver microsomes

Compound	half-life (in vivo [1]) [h]	t1/2 [2] [h]	half-life (in vitro [3]) [h]	AUC(0-inf) (in vivo [4]) [ng·h/mL]	Stability ([5]; microsomes, 1 h) [%]	clearance (in vivo [6]) [mL/min/kg]	bioavailability (in vivo [7]) [%]	remaining at 1 h ([5]; liver microsomes, read-out: Stability) [%]	half-life (in vitro [8]) [h]
COc1cc(N2CCN(C)CC2)ccc1Nc1ncc2c(n1)N(C)c1ccccc1C(=O)N2	0.7	0.467	5.78	56	2	150	5	–	–
COc1cc(N2CCN(C)CC2)ccc1Nc1ncc2c(n1)N(C)c1ccccc1C(=O)N2C	4.4	–	> 8.33	2000	–	25	46	40	0.367
COc1cc2c(cc1Nc1ccc(Nc3ncc4c(n3)N(C)c3ccccc3C(=O)N4)cc1)CCN(C)C2	10	–	–	125	–	120	7	–	–
